Data published in US12624031B2, “Inhibitors of ubiquitin specific peptidase 22 (USP22) and uses thereof for treating diseases and disorders” (Northwestern University, priority 2022, dated 2026).

Test system: LLC1 tumors in WT mice
Assay: LLC1 tumor model in WT mice
Assay type: in vivo
Experimental: FIG. 5: Usp22 inhibitor administration enhances antitumor immunity. A, Structure of compound CS30 (Usp22i-S02). B, FOXP3 MFI in WT and 22KO of Treg cells after treatment with 20 μg/kg of Usp22i-S02 in vivo (n=3). C, Representative flow cytometry plot of FOXP3+CD25+MFI of CD4+ peripheral cells of mice treated with 20 μg/kg of Usp22i-S 02 relative to control (n=5). D, Graphical representation of Foxp3 MFI upon Usp22i-S02 administration (n=5). E, Tumor growth curve of LLC1 cells subcutaneously injected in the flank of WT mice with or without the addition of 20 mg/kg/time of the Usp22 inhibitor starting at day 15, in 100 μL of oil (n=4). F-G, Representative flow cytometry plot and graphical representation of % infiltration of CD4+ and CD8+ T cells within the tumor (n=4). H, Representative histogram plot and graphical representation of intratumoral Treg (itTreg) Foxp3 MFI (n=4). I, MFI of itTreg suppressive markers (n=3-4). J, Percent Foxp3+IFNg+itTreg cells in control and Usp22-S02 treated mice (n=3-4). B, D-E, G, H-I Two-way ANOVA with multiple comparisons between rows was performed to determine statistical significance. J, Unpaired two tailed T test was performed to determine significance. All data are presented as mean±stdev. NS, not significant. *P<0.05, **P<0.01, ***P<0.001, ****P<0.0001.
FIG. 7: Usp22i-S02 has little effect on naïve mice, yet enhances anti-tumor immunity in LLC1-challenged mice. A, Body weight of Usp22i-S02 treated mice verses DMSO treated controls over the course of treatment (n=4). A-F. Injections were twice a day for 3 consecutive days at 10 μg/kg (n=4). B, Percent of cell populations in naïve mice treated with Usp22i-S02 relative to DMSO control (n=3-4). C, Percent of KI-67+ cells in various compartments in naïve mice treated with Usp22i-S02 relative to DMSO control (n=3-4). D, Percent CD44^hiCD62L^lo in T cell populations gated on CD45+ cells in naïve mice treated with Usp22i-S02 relative to DMSO control (n=3). E, Percent Annexin+PI+ T cells gates on CD45+ cells in naïve mice treated with Usp22i-S02 relative to DMSO control (n=4). F-H, Organ toxicity panel (VetScan VS2 Comprehensive Diagnostic Rotor lot 1061AA2) of naïve mice treated with Usp22i-S02 relative to DMSO control (n=2-3). I, Growth curve of subcutaneously injected LLC1 in WT mice treated with Usp22i-S02 at 10 μg/kg (n=5-10). I-Q, Injections were twice a day for 5 consecutive days at 10 μg/kg. J, Weights of resected tumors at day 16 from I (n=10). K-L, Representative flow plot and graphical representation of infiltrating T cells gated on CD45+ cells (n=5). M-P, Characterization of intratumoral CD8+ T cells frome mice treated with Usp22i-S02 (n=3-5). Q, Percent of intratumoral Treg cells from mice treated with Usp22i-S02 verses DMSO control, gated on CD4+Foxp3+ from mice (n=5). A-E, I and L, Two-way ANOVA with Sidaks's multiple comparisons between rows relative to control was performed to determine statistical significance. F-H, J, and M-Q, Two-tailed unpaired t-test was performed to determine statistical significance. All data are presented as mean±stdev. NS, not significant. *P<0.05, **P<0.01, ***P<0.001, ****P<0.0001.
To determine the functionality of Usp22i-S02 as a potential therapeutic, we tested the inhibitor on established tumors. […] Further analysis of tumor infiltrating lymphocytes was done on mice treated immediately following tumor implantation (FIG. 7I).
LLC1 cells were transplanted into 6-to-8-week-old C57BL/6 male mice. Subcutaneous injections were performed in the right flank of mice in a final volume of 100 μL using […] per injection. The USP22i-S02 was injected intraperitoneally (i.p) at a concentration of 20 mg/kg/time, in 100 μL of oil, twice a day for 5 days beginning on the day of the LLC1 cells injection. Control animals received 100 μL of oil alone. Subcutaneous tumor diameters were measured daily with calipers until any tumor in the mouse cohort reached 2.5 cm in its largest diameter.

N#Cc1c2c(c(Nc3ccccc3)n3c1nc1ccccc13)CCCC2 [USP22i-S02, 11-anilino-7,8,9,10-tetrahydrobenzimidazo[1,2-b]isoquinoline-6-carbonitrile]
tumor growth of established LLC1 tumors (WT mice, 20 mg/kg/time starting at day 15): striking tumor rejection
itTreg GITR and PD-1 levels (established LLC1 tumors): lower levels of GITR and PD-1
itTreg IFN-γ levels (established LLC1 tumors): significantly higher levels of IFN-γ
Teff cell tumor infiltration (established LLC1 tumors, WT mice): significant increase in Teff cell tumor infiltration
intratumoral Foxp3+ Treg percentage (established LLC1 tumors, not splenic): significantly decreased
intratumoral CD8+ T cell phenotype (treated immediately following tumor implantation): less exhausted phenotype
intratumoral Foxp3+ Treg percentage (treated immediately following tumor implantation (FIG. 7Q)): significantly decreased
tumor burden (treated immediately following tumor implantation, twice a day for 5 days at 10 μg/kg): decreased tumor burden
